AUC data for one molecule are collected here from patent US10421761B2, “Compounds for kinase modulation, and indications therefor” (Plexxikon Inc., priority 2013, dated 2019).

The data set can be described thus: Plasma exposure (PK analysis) in the xenograft efficacy study. Format: in vivo. As to conditions: mouse, oral, COLO205 xenograft model, 25 mg/kg twice daily, read-out: plasma exposure, steady state AUC. The method, then:
All animal studies were conducted in accordance with the Institute for Laboratory Animal Research Guide for the Care and Use of Laboratory Animals and the USDA Animal Welfare Act. The same formulation was used for both COL0205 and B9 xenograft studies. The powder of test compound was dissolved in pure N-methyl-2-pyrrolidone (NMP). Diluent consists of PEG400: TPGS:Poloxamer 407:Water (40:5:5:50). Before gavage administration, fresh stock of NMP compound solution (or NMP for vehicle) was thoroughly mixed with the diluents to make a uniform suspension. Dosing volume is 5 μl/g. On the last day of the efficacy study, blood samples were collected at 0, 2, 4, and 8 hrs after last dosing, 2 animals/time point, for PK analysis.

On to `CCCS(=O)(=O)Nc1ccc(F)c(C(=O)c2c[nH]c3ncc(-c4ccc(Cl)cc4)cc23)c1F` [vemurafenib], for which the AUC was 200 µg·h/mL.

In general, AUC refers to the area under the concentration-time curve, a measure of exposure.
